Converted amounts (≈) assume the structure as drawn. Where two headings read alike, the source gives them in different places.
Assays:
Format in all cases: cell-based
[1] = test system: S. aureus ATCC 33591 (methicillin-resistant); test: broth microdilution MIC assay, S. aureus 33591; conditions: Staphylococcus aureus
Protocol: (§1) To determine the ability of test compounds to inhibit the growth of bacterial strains, classic cell-based broth microdilution MIC assays were employed. MIC assays are performed according to CLSI methods except where otherwise noted (CLSI, 2011 and CLSI, 2009). The reference strains S. aureus ATCC 29213 (methicillin sensitive), S. aureus ATCC 33591 (methicillin-resistant), E. coli ATCC 25922 (wild-type/QC strain), P. aeruginosa ATCC 27853 (wild-type/QC strain), and the clinical isolate P. aeruginosa PA 8 were used to determine the ability of the exemplary carbapenem compounds to inhibit bacterial growth. An expanded panel of methicillin resistance S. aureus (MRSA) and Pseudomonas was also used to determine the ability of exemplary carbapenem compounds to inhibit bacterial growth across a broader representation of those species. To determine activity in MRSA and in addition to S. aureus ATCC 33591, S. aureus USA 300 and USA 600, some of the most common clones found to cause human infection, were also used. To further gauge the impact on the carbapenem compounds due to various resistance mechanisms in Pseudomonas, the following strains were included: P. aeruginosa 35151 (hyper-permeable strain), P. aeruginosa ΔmexAB-OprM (an efflux pump knockout), and P. aeruginosa Paβ-173 (a clinical isolate of reduced carbapenem susceptibility). Briefly, cryo-preserved bacterial cultures of clinical strains are streaked for isolation on appropriate agar medium, in this case Mueller Hinton II agar. Following incubation to allow formation of colonies, these plates are sealed with parafilm and stored refrigerated for up to two weeks. For preparation of assay inocula and to ensure low variability, at least 5 colonies are picked from the agar plates with an inoculating loop and aseptically transferred to a culture tube containing 3 mL of Mueller-Hinton Broth (supplemented with divalent cations to required levels based on Manufacturers' specification). The broth culture is grown for 3-5 hours at 37° C. with shaking at 200 rpm. Meanwhile, 2-fold serial dilutions of test compounds are conducted in a 96 well plate with a final volume of 75 μL per well at 2-fold the final desired concentration. After the dilution plates are set up the growing cultures are then diluted in a cuvette containing MH II broth and the optical density is measured at 600 nm. Inocula are diluted such that 75 μL of this culture in Mueller-Hinton Broth results in a starting bacterial concentration of 5×10^5 CFU/mL when added to the dilution plates. The plates are incubated 16-20 hours at 37° C. The MIC is read visually as the lowest concentration well with no bacterial growth.

[2] = test system: S. aureus USA 300; test: broth microdilution MIC assay, S. aureus USA300; conditions: Staphylococcus aureus
Protocol: as §1

[3] = test system: S. aureus USA 600; test: broth microdilution MIC assay, S. aureus USA600; conditions: Staphylococcus aureus
Protocol: as §1

[4] = test system: E. coli ATCC 25922 (wild-type/QC strain); test: broth microdilution MIC assay, E. coli 25922
Protocol: as §1

[5] = test system: P. aeruginosa ATCC 27853 (wild-type/QC strain); test: broth microdilution MIC assay, P. aeruginosa 27853
Protocol: as §1

[6] = test system: P. aeruginosa 35151 (hyper-permeable strain); test: broth microdilution MIC assay, P. aeruginosa 35151; conditions: Pseudomonas aeruginosa, read-out: MIC, P. aeruginosa 35151
Protocol: as §1

[7] = test system: P. aeruginosa ΔmexAB-OprM (an efflux pump knockout); test: broth microdilution MIC assay, P. aeruginosa ΔmexAB-OprM; conditions: Pseudomonas aeruginosa, read-out: MIC, P. aeruginosa ΔmexAB-OprM
Protocol: as §1

[8] = test system: P. aeruginosa Paeβ-17; test: broth microdilution MIC assay, P. aeruginosa Paeβ-17; conditions: Pseudomonas aeruginosa, read-out: MIC, P. aeruginosa Paeβ-17
Protocol: as §1

[9] = ATCC33591, S. aureus 33591, methicillin-resistant, read-out: MIC, S. aureus 33591
[10] = S. aureus USA300 (MRSA), read-out: MIC, S. aureus USA300
[11] = S. aureus USA600 (MRSA), read-out: MIC, S. aureus USA600
[12] = Escherichia coli, ATCC25922; read-out: MIC, E. coli 25922
[13] = Pseudomonas aeruginosa, ATCC27853; read-out: MIC, P. aeruginosa 27853

| SMILES | MIC [1, 9] [µg/mL] | MIC [2, 10] [µg/mL] | MIC [3, 11] [µg/mL] | MIC [4, 12] [µg/mL] | MIC [5, 13] [µg/mL] | MIC [6] [µg/mL] | MIC [7] [µg/mL] | MIC [8] [µg/mL] | MIC ([1]; ATCC33591, read-out: MIC, S. aureus 33591) [µg/mL] | MIC ([2]; MRSA / USA300, read-out: MIC, S. aureus USA300) [µg/mL] | MIC ([3]; MRSA / USA600, read-out: MIC, S. aureus USA600) [µg/mL] | MIC ([4]; Escherichia coli, ATCC25922, read-out: MIC, E. coli 25922) [µg/mL] | MIC ([5]; Pseudomonas aeruginosa, ATCC27853, read-out: MIC, P. aeruginosa 27853) [µg/mL] |
| --- | --- | --- | --- | --- | --- | --- | --- | --- | --- | --- | --- | --- | --- |
| C[C@@H](O)[C@H]1C(=O)N2C(C(=O)O)=C(S[C@H]3C[C@H](N[C@@H]4CC[C@H](NC(=N)N)C4)C3)[C@H](C)[C@H]12 [Example 79, (4R,5S,6S)-3-(((1R,3R)-3-(((1R,3S)-3-guanidinocyclopentyl)amino)cyclobutyl)thio)-6-((R)-1-hydroxyethyl)-4-methyl-7-oxo-1-azabicyclo[3.2.0]hept-2-ene-2-carboxylic acid] | 8 to 32 (≈ 18.3 to 73.1 µM) | 1 to 4 (≈ 2.29 to 9.14 µM) | 1 to 4 (≈ 2.29 to 9.14 µM) | < 1 | 1 to 4 (≈ 2.29 to 9.14 µM) | < 1 | 8 to 32 (≈ 18.3 to 73.1 µM) | 1 to 4 (≈ 2.29 to 9.14 µM) | – | – | – | – | – |
| C[C@@H](O)[C@H]1C(=O)N2C(C(=O)O)=C(S[C@@H]3CCN([C@H]4CC[C@@H](CN)CC4)C3)[C@H](C)[C@H]12 [Example 57, (4R,5S,6S)-3-(((R)-1-((1S,4S)-4-(aminomethyl)cyclohexyl)pyrrolidin-3-yl)thio)-6-((R)-1-hydroxyethyl)-4-methyl-7-oxo-1-azabicyclo[3.2.0]hept-2-ene-2-carboxylic acid] | 1 to 4 (≈ 2.36 to 9.44 µM) | 1 to 4 (≈ 2.36 to 9.44 µM) | 1 to 4 (≈ 2.36 to 9.44 µM) | < 1 | 1 to 4 (≈ 2.36 to 9.44 µM) | < 1 | 1 to 4 (≈ 2.36 to 9.44 µM) | 8 to 32 (≈ 18.9 to 75.5 µM) | – | – | – | – | – |
| C[C@@H](O)[C@H]1C(=O)N2C(C(=O)O)=C(S[C@@H]3CCN(C[C@H]4CC[C@H](N)CC4)C3)[C@H](C)[C@H]12 [Example 56, (4R,5S,6S)-3-(((R)-1-(((1R,4R)-4-aminocyclohexyl)methyl)pyrrolidin-3-yl)thio)-6-((R)-1-hydroxyethyl)-4-methyl-7-oxo-1-azabicyclo[3.2.0]hept-2-ene-2-carboxylic acid] | 1 to 4 (≈ 2.36 to 9.44 µM) | 1 to 4 (≈ 2.36 to 9.44 µM) | 1 to 4 (≈ 2.36 to 9.44 µM) | < 1 | 1 to 4 (≈ 2.36 to 9.44 µM) | < 1 | 1 to 4 (≈ 2.36 to 9.44 µM) | 8 to 32 (≈ 18.9 to 75.5 µM) | – | – | – | – | – |
| C[C@@H](O)[C@H]1C(=O)N2C(C(=O)O)=C(S[C@@H]3CCN([C@H]4CC[C@H](CNC(=N)N)CC4)C3)[C@H](C)[C@H]12 [Example 64, (4R,5S,6S)-3-(((R)-1-((1R,4R)-4-(guanidinomethyl)cyclohexyl)pyrrolidin-3-yl)thio)-6-((R)-1-hydroxyethyl)-4-methyl-7-oxo-1-azabicyclo[3.2.0]hept-2-ene-2-carboxylic acid] | 1 to 4 (≈ 2.15 to 8.59 µM) | 1 to 4 (≈ 2.15 to 8.59 µM) | 1 to 4 (≈ 2.15 to 8.59 µM) | < 1 | 1 to 4 (≈ 2.15 to 8.59 µM) | < 1 | 1 to 4 (≈ 2.15 to 8.59 µM) | 8 to 32 (≈ 17.2 to 68.7 µM) | – | – | – | – | – |
| C[C@@H](O)[C@H]1C(=O)N2C(C(=O)O)=C(S[C@H]3C[C@@H](N4CCC(N)CC4)C3)[C@H](C)[C@H]12 [Example 54] | – | – | – | – | – | < 1 | 1 to 4 (≈ 2.53 to 10.1 µM) | 8 to 32 (≈ 20.2 to 80.9 µM) | 8 to 32 (≈ 20.2 to 80.9 µM) | 8 to 32 (≈ 20.2 to 80.9 µM) | 1 to 4 (≈ 2.53 to 10.1 µM) | < 1 | 8 to 32 (≈ 20.2 to 80.9 µM) |
| C[C@@H](O)[C@H]1C(=O)N2C(C(=O)O)=C(SC3CN([C@H]4CC[C@@H](CNC(=N)N)CC4)C3)[C@H](C)[C@H]12 [Example 65, (4R,5S,6S)-3-((1-((1S,4S)-4-(guanidinomethyl)cyclohexyl)azetidin-3-yl)thio)-6-((R)-1-hydroxyethyl)-4-methyl-7-oxo-1-azabicyclo[3.2.0]hept-2-ene-2-carboxylic acid] | 1 to 4 (≈ 2.21 to 8.86 µM) | 1 to 4 (≈ 2.21 to 8.86 µM) | 1 to 4 (≈ 2.21 to 8.86 µM) | < 1 | 1 to 4 (≈ 2.21 to 8.86 µM) | < 1 | 1 to 4 (≈ 2.21 to 8.86 µM) | 8 to 32 (≈ 17.7 to 70.9 µM) | – | – | – | – | – |
| C[C@@H](O)[C@H]1C(=O)N2C(C(=O)O)=C(S[C@@H]3CCN([C@H]4CC[C@@H](N)C4)C3)[C@H](C)[C@H]12 [Example 36, (4R,5S,6S)-3-(((R)-1-((1S,3R)-3-aminocyclopentyl)pyrrolidin-3-yl)thio)-6-((R)-1-hydroxyethyl)-4-methyl-7-oxo-1-azabicyclo[3.2.0]hept-2-ene-2-carboxylic acid] | 1 to 4 (≈ 2.53 to 10.1 µM) | 1 to 4 (≈ 2.53 to 10.1 µM) | 1 to 4 (≈ 2.53 to 10.1 µM) | < 1 | 1 to 4 (≈ 2.53 to 10.1 µM) | < 1 | 1 to 4 (≈ 2.53 to 10.1 µM) | 8 to 32 (≈ 20.2 to 80.9 µM) | – | – | – | – | – |
| C[C@@H](O)[C@H]1C(=O)N2C(C(=O)O)=C(SC3CN([C@H]4CC[C@@H](NC(=N)N)C4)C3)[C@H](C)[C@H]12 [Example 9, (4R,5S,6S)-3-((1-((1S,3R)-3-guanidinocyclopentyl)azetidin-3-yl)thio)-6-((R)-1-hydroxyethyl)-4-methyl-7-oxo-1-azabicyclo[3.2.0]hept-2-ene-2-carboxylic acid] | 1 to 4 (≈ 2.36 to 9.44 µM) | < 1 | < 1 | < 1 | 1 to 4 (≈ 2.36 to 9.44 µM) | < 1 | < 1 | 8 to 32 (≈ 18.9 to 75.6 µM) | – | – | – | – | – |
| C[C@@H](O)[C@H]1C(=O)N2C(C(=O)O)=C(S[C@H]3C[C@H](N[C@H]4CC[C@H](N)C4)C3)[C@H](C)[C@H]12 [Example 67, (4R,5S,6S)-3-(((1S,3R)-3-(((1S,3S)-3-aminocyclopentyl)amino)cyclobutyl)thio)-6-((R)-1-hydroxyethyl)-4-methyl-7-oxo-1-azabicyclo[3.2.0]hept-2-ene-2-carboxylic acid] | 8 to 32 (≈ 20.2 to 80.9 µM) | 8 to 32 (≈ 20.2 to 80.9 µM) | 1 to 4 (≈ 2.53 to 10.1 µM) | < 1 | 8 to 32 (≈ 20.2 to 80.9 µM) | < 1 | 1 to 4 (≈ 2.53 to 10.1 µM) | 8 to 32 (≈ 20.2 to 80.9 µM) | – | – | – | – | – |
| C[C@@H](O)[C@H]1C(=O)N2C(C(=O)O)=C(SC3CN([C@H]4C[C@H](N)C4)C3)[C@H](C)[C@H]12 [Example 4, (4R,5S,6S)-3-((1-((1r,3R)-3-aminocyclobutyl)azetidin-3-yl)thio)-6-((R)-1-hydroxyethyl)-4-methyl-7-oxo-1-azabicyclo[3.2.0]hept-2-ene-2-carboxylic acid] | 8 to 32 (≈ 21.8 to 87.1 µM) | 1 to 4 (≈ 2.72 to 10.9 µM) | 1 to 4 (≈ 2.72 to 10.9 µM) | < 1 | 8 to 32 (≈ 21.8 to 87.1 µM) | < 1 | 1 to 4 (≈ 2.72 to 10.9 µM) | > 32 | – | – | – | – | – |
| C[C@@H](O)[C@H]1C(=O)N2C(C(=O)O)=C(SC3CN(C[C@@H]4CCN(C(=N)N)C4)C3)[C@H](C)[C@H]12 [Example 39, (4R,5S,6S)-3-((1-(((S)-1-carbamimidoylpyrrolidin-3-yl)methyl)azetidin-3-yl)thio)-6-((R)-1-hydroxyethyl)-4-methyl-7-oxo-1-azabicyclo[3.2.0]hept-2-ene-2-carboxylic acid] | 8 to 32 (≈ 18.9 to 75.6 µM) | 1 to 4 (≈ 2.36 to 9.44 µM) | 1 to 4 (≈ 2.36 to 9.44 µM) | < 1 | 8 to 32 (≈ 18.9 to 75.6 µM) | 1 to 4 (≈ 2.36 to 9.44 µM) | 1 to 4 (≈ 2.36 to 9.44 µM) | > 32 | – | – | – | – | – |
| C[C@@H](O)[C@H]1C(=O)N2C(C(=O)O)=C(SC3CN([C@H]4C[C@@H](CN)C4)C3)[C@H](C)[C@H]12 [Example 1, (4R,5S,6S)-3-((1-((1s,3S)-3-(aminomethyl)cyclobutyl)azetidin-3-yl)thio)-6-((R)-1-hydroxyethyl)-4-methyl-7-oxo-1-azabicyclo[3.2.0]hept-2-ene-2-carboxylic acid] | 8 to 32 (≈ 21 to 83.9 µM) | 1 to 4 (≈ 2.62 to 10.5 µM) | 1 to 4 (≈ 2.62 to 10.5 µM) | < 1 | 8 to 32 (≈ 21 to 83.9 µM) | < 1 | 1 to 4 (≈ 2.62 to 10.5 µM) | > 32 | – | – | – | – | – |
